One compound from paper PMC6253949, “The Inhibitory Action of Kohamaic Acid A Derivatives on Mammalian DNA Polymerase β” (Molecules, 2008) can be followed below.

Structures are written as SMILES.

In test [1] the target is T1, Human DNA polymerase ι (Homo sapiens, UniProt Q9UNA4).
T1 construct: His6 (C); made in house; host or cells: SF9 insect cells (baculovirus)
T1 sequence (Q9UNA4 1-740): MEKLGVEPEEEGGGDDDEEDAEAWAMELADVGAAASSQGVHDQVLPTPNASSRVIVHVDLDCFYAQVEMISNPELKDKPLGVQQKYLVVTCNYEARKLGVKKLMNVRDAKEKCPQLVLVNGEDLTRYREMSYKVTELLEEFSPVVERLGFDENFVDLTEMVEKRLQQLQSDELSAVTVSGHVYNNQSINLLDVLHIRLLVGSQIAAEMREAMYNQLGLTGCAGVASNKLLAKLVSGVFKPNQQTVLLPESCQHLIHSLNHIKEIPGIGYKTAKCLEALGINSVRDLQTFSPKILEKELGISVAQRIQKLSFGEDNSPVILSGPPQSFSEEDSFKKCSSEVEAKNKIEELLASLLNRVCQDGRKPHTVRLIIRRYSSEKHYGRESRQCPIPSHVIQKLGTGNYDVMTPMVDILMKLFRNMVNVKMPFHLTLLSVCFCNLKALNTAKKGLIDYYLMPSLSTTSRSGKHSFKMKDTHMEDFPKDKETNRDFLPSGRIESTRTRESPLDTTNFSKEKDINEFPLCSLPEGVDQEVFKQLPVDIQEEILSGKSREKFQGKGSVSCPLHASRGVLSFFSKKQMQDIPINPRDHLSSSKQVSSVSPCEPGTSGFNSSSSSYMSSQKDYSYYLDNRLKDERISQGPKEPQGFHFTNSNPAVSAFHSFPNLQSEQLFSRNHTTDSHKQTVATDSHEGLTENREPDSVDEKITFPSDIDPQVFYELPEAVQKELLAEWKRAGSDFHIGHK
The test can be described thus: DNA polymerase assay, human pol ι. The class given is biochemical. The text has this: Pol α was purified from calf thymus by immuno-affinity column chromatography as described by Tamai et al.. Recombinant rat pol β was purified from E. coli JMpβ5 as described by Date et al.. The human pol γ catalytic gene was cloned into pFastBac. Histidine-tagged enzyme was expressed using the BAC-TO-BAC HT Baculovirus Expression System according to the supplier's manual (LIFE TECHNOLOGIES, MD, USA) and purified using ProBoundresin (Invitrogen Japan, Tokyo, Japan). Human pols δ and ε were purified by the nuclear fractionation of human peripheral blood cancer cells (Molt-4) using the second subunit of pols δ and ε-conjugated affinity column chromatography, respectively. Recombinant human pols η and ι tagged with His6 at their C-terminal were expressed in SF9 insect cells using the baculovirus expression system, and were purified as described previously. A truncated form of pol κ (i.e., hDINB1DC) with 6 x His-tags attached at the C-terminal was overproduced using the BAC-to-BAC Baculovirus Expression System kit (GIBCO BRL, MD, USA) and purified as described previously. […]
For pols, poly(dA)/oligo(dT)12-18 (A/T = 2/1) and dTTP were used as the DNA template-primer and nucleotide (i.e., dNTP) substrate, respectively. […] Activity without the inhibitor was considered 100%, and the remaining activity at each concentration of the inhibitor was determined relative to this value. […]

Test [2] concerns HL-60 cells. Briefly: HL-60 cancer cell growth, MTT assay. The format is cell-based, human. The following applies: 50 μM, 24 hr. Here is the method: To investigate the effects of KA-A derivatives in cultured cells, we used a human cancer cell line, HL-60, human promyelocytic leukemia cells (IFO 050022), supplied by the Health Science Research Resources Bank (Osaka, Japan). The cells were routinely cultured in RPMI 1640 medium supplemented with 10% fetal bovine serum, 100 μg/mL streptomycin, 100 unit/mL penicillin, and 1.6 mg/mL NaHCO3. The cells were cultured at 37 °C in standard medium in a humidified atmosphere of 5% CO2-95% air. The rate of the cancer cell growth of the compound was investigated as follows: high concentrations (10 mM) of the compounds were dissolved in DMSO and stocked. Approximately 1 x 10^4 cells per well were inoculated in 96-well micro plates, and then the compound stock solution was diluted to various concentrations, and applied to each well. After incubation for 24 hr, the survival rate was determined by MTT (3-(4,5-dimethylthiazol-2-yl)-2,5-diphenyl tetrazolium bromide) assay.
On the technique in general: Tetrazolium assays rely on reduction of a dye to a coloured formazan, in cell work by metabolically active cells.

Usually IC50 stands for the midpoint of a concentration-inhibition curve. Higher therefore signals a need for much substance.

In test [1], `CC1=CC[C@H]2C(C)(C)CCC[C@]2(C)[C@H]1CCCCCCCCCCCCCCCCC(=O)O` (relative stereo) [compound 11, (1S*,4aS*,8aS*)-17-(1,4,4a,5,6,7,8,8a-octahydro-2,5,5,8a-tetramethylnaphthalen-1-yl)heptadecanoic acid] had an IC50 of 7.84 ± 0.39 µM. In addition, the “Growth inhibitory effect on HL-60 cells, rank among compounds tested” value in test [2] is recorded as “strongest growth inhibitory effect”.
